Experimental data as given in US7642251B2, “Compounds for the treatment of hepatitis C” (Bristol-Myers Squibb Company, priority 2007, dated 2010).

Legend:
HCV replicon cells = experiment: HCV replicon FRET assay; format: cell-based; settings: Hepatitis C virus; FRET assay; read-out: EC50
Source text: FRET Assay Preparation. To perform the HCV FRET screening assay, 96-well cell culture plates were used. The FRET peptide (Anaspec, Inc.) (Taliani et al., Anal. Biochem. 1996, 240, 60-67) contains a fluorescence donor, EDANS, near one end of the peptide and an acceptor, DABCYL, near the other end. The fluorescence of the peptide is quenched by […] resonance energy transfer (RET) between the donor and the acceptor, but as the NS3 protease cleaves the peptide the products are released from RET quenching and the fluorescence of the donor becomes apparent. The assay reagent was made as follows: 5× cell Luciferase cell culture lysis reagent from Promega (#E153A) diluted to 1× with dH2O, NaCl added to 150 mM final, the FRET peptide diluted to 20 μM final from a 2 mM stock.
To prepare plates, HCV replicon cells, with or without a Renilla luciferase reporter gene, were trypsinized and placed into each well of a 96-well plate with titrated test compounds added in columns 3 through 12; columns 1 and 2 contained a control compound (HCV protease inhibitor), and the bottom row contained cells without compound. The plates were then placed in a CO2 incubator at 37° C.
Assays. Subsequent to addition of the test compounds described above (FRET Assay Preparation), at various times the plate was removed and Alamar blue solution (Trek Diagnostics, #00-100) was added per well as a measure of cellular toxicity. After reading in a Cytoflour 4000 instrument (PE Biosystems), plates were rinsed with PBS and then used for FRET assay by the addition of 30 ul of the FRET peptide assay reagent described above (FRET Assay Preparation) per well. The plate was then placed into the Cytoflour 4000 instrument which had been set to 340 excite/490 emission, automatic mode for 20 cycles and the plate read in a kinetic mode. Typically, the signal to noise using an endpoint analysis after the reads was at least three-fold. Alternatively, after Alamar blue reading, plates were rinsed with PBS, 50 ul of DMEM (high glucose) without phenol red was added and plates were then used for luciferase assay using the Promega Dual-Glo Luciferase Assay System.
Compound analysis was determined by quantification of the relative HCV replicon inhibition and the relative cytotoxicity values. To calculate cytoxicity values, the average Alamar Blue fluorescence signals from the control wells were set as 100% non-toxic. The individual signals in each of the compound test wells were then divided by the average control signal and multiplied by 100% to determine […]. To calculate the HCV replicon inhibition values, an average background value was obtained from the two wells containing the highest amount of HCV protease inhibitor at the end of the assay period. These numbers were similar to those obtained from naïve Huh-7 cells.
The background numbers were then subtracted from the average signal obtained from the control wells and this number was used as 100% activity. The individual signals in each of the compound test wells were then divided by the averaged control values after background subtraction and multiplied by 100% to determine percent activity. EC50 values for a protease inhibitor titration were calculated as the concentration which caused a 50% reduction in FRET or luciferase activity. The two numbers generated for the compound plate, percent cytoxicity and percent activity were used to determine compounds of interest for further analysis.

HCV NS5B = target: T1, HCV NS5B (Hepatitis C virus genotype 1b, UniProt Q9WMX2); experiment: Modified HCV NS5B RdRp enzyme assay (preincubation protocol); format: biochemical; settings: preincubation protocol; read-out: IC50
T1 construct: The cDNA encoding the NS5B protein of HCV, genotype 1b; made in house; host or cells: E. coli BL21(DE3)
T1 sequence (Q9WMX2 2420-2992): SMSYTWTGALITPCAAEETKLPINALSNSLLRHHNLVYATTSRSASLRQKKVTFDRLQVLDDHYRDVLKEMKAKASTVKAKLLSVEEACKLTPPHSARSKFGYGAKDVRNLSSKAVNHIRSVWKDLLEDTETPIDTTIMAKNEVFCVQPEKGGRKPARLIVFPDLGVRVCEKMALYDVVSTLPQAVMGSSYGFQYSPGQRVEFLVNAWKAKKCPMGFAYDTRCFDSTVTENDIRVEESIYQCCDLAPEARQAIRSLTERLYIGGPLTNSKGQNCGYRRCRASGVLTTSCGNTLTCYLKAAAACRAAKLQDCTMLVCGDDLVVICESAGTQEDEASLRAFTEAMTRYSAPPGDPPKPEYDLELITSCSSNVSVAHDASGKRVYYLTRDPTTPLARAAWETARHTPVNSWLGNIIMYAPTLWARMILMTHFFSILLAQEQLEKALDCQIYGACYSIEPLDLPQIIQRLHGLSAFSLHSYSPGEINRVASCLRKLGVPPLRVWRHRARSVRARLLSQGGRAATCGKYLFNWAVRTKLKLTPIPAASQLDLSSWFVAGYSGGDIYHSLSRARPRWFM
Description: HCV NS5B RdRp cloning, expression, and purification. The cDNA encoding the NS5B protein of HCV, genotype 1b, was cloned into the pET21a expression vector. The protein was expressed with an 18 amino acid C-terminal truncation to enhance the solubility. The E. coli competent cell line BL21(DE3) was used for expression of the protein. Cultures were grown at 37° C. for ˜4 hours until the cultures reached an optical density of 2.0 at 600 nm. The cultures were cooled to 20° C. and induced with 1 mM IPTG. Fresh ampicillin was added to a final concentration of 50 μg/ml and the cells were grown overnight at 20° C.
Cell pellets (3 L) were lysed for purification to yield 15-24 mgs of purified NS5B. The lysis buffer consisted of 20 mM Tris-HCl, pH 7.4, 500 mM NaCl, 0.5% triton X-100, 1 mM DTT, 1 mM EDTA, 20% glycerol, 0.5 mg/ml lysozyme, 10 mM MgCl2, 15 ug/ml deoxyribonuclease I, and Complete™ protease inhibitor tablets (Roche). After addition of the lysis buffer, frozen cell pellets were resuspended using a tissue homogenizer. To reduce the viscosity of the sample, aliquots of the lysate were sonicated on ice using a microtip attached to a Branson sonicator. The sonicated lysate was centrifuged at 100,000×g for 1 hr at 4° C. and filtered through a 0.2 μm filter unit (Corning).
The protein was purified using three sequential chromatography steps: Heparin sepharose CL-6B, polyU sepharose 4B, and Hitrap SP sepharose (Pharmacia). The chromatography buffers were identical to the lysis buffer but contained no lysozyme, deoxyribonuclease I, MgCl2 or protease inhibitor and the NaCl concentration of the buffer was adjusted according to the requirements for charging the protein onto the column. Each column was eluted with a NaCl gradient which varied in length from 5-50 column volumes depending on the column type. After the final chromatography step, the resulting purity of the enzyme is >90% based on SDS-PAGE analysis. The enzyme was aliquoted and stored at −80° C.
Standard HCV NS5B RdRp enzyme assay. HCV RdRp genotype 1b assays were run in a final volume of 60 μl in 96 well plates (Costar 3912). The assay buffer is composed of 20 mM Hepes, pH 7.5, 2.5 mM KCl, 2.5 mM MgCl2, 1 mM DTT, 1.6 U RNAse inhibitor (Promega N2515), 0.1 mg/ml BSA (Promega R3961), and 2% glycerol. All compounds were serially diluted (3-fold) in DMSO and diluted further in water such that the final concentration of DMSO in the assay was 2%. HCV RdRp genotype 1b enzyme was used at a final concentration of 28 nM. A polyA template was used at 6 nM, and a biotinylated oligo-dT12 primer was used at 180 nM final concentration. Template was obtained commercially (Amersham 27-4110). Biotinylated primer was prepared by Sigma Genosys. 3H-UTP was used at 0.6 μCi (0.29 μM total UTP). Reactions were initiated by the addition of enzyme, incubated at 30° C. for 60 min, and stopped by adding 25 μl of 50 mM EDTA containing SPA beads (4 μg/μl, Amersham RPNQ 0007). Plates were read on a Packard Top Count NXT after >1 hr incubation at room temperature.
Modified HCV NS5B RdRp enzyme assay. A modified enzyme assay was performed essentially as described for the standard enzyme assay except for the following: The biotinylated oligo dT12 primer was precaptured on streptavidin-coated SPA beads by mixing primer and beads in assay buffer and incubating at room temperature for one hour. Unbound primer was removed after centrifugation. The primer-bound beads were resuspended in 20 mM Hepes buffer, pH 7.5 and used in the assay at final concentrations of 20 nM primer and 0.67 μg/μl beads. Order of addition in the assay: enzyme (14 nM) was added to diluted compound followed by the addition of a mixture of template (0.2 nM), 3H-UTP (0.6 μCi, 0.29 μM), and primer-bound beads, to initiate the reaction; concentrations given are final. Reactions were allowed to proceed for 4 hours at 30° C.
IC50 values for compounds were determined using seven different [I]. […]

SMILES	EC50 (HCV replicon cells)	IC50 (HCV NS5B)
COc1ccc2c(c1)C=C(c1ncccc1C(=O)N1CCOCC1)Cn1c-2c(C2CCCCC2)c2ccc(C(=O)O)cc21	4.58 to 500 nM	4.58 to 500 nM
COc1ccc2c(c1)C=C(c1cccc(N3CCOCC3)n1)Cn1c-2c(C2CCCCC2)c2ccc(C(=O)O)cc21	> 500 nM	> 500 nM
COc1ccc2c(c1)C=C(c1nccc(N(C)C)n1)Cn1c-2c(C2CCCCC2)c2ccc(C(=O)O)cc21	> 500 nM	> 500 nM
COc1ccc2c(c1)C=C(c1ccc(N3CCOCC3)nn1)Cn1c-2c(C2CCCCC2)c2ccc(C(=O)NS(=O)(=O)N(C)C)cc21	> 500 nM	4.58 to 500 nM
COc1ccc2c(c1)C=C(c1nccc(N(C)C)n1)Cn1c-2c(C2CCCCC2)c2ccc(C(=O)NS(=O)(=O)N(C)C)cc21	> 500 nM	4.58 to 500 nM
COc1ccc2c(c1)C=C(c1ncccc1N(C)C)Cn1c-2c(C2CCCCC2)c2ccc(C(=O)NS(=O)(=O)N(C)C)cc21	4.58 to 500 nM	4.58 to 500 nM
COc1ccc2c(c1)C=C(c1nccc(C(=O)N3CCOCC3)n1)Cn1c-2c(C2CCCCC2)c2ccc(C(=O)NS(=O)(=O)N(C)C)cc21	4.58 to 500 nM	4.58 to 500 nM
COc1ccc2c(c1)C=C(c1ncccc1S(=O)(=O)N1CCOCC1)Cn1c-2c(C2CCCCC2)c2ccc(C(=O)NS(=O)(=O)N(C)C)cc21	4.58 to 500 nM	4.58 to 500 nM
COc1ccc2c(c1)C=C(c1ncccc1N1CC(C)(C)C1=O)Cn1c-2c(C2CCCCC2)c2ccc(C(=O)NS(=O)(=O)N(C)C)cc21	4.58 to 500 nM	4.58 to 500 nM
COc1ccc2c(c1)C=C(c1ncccc1C(=O)N1CCN(C)CC1)Cn1c-2c(C2CCCCC2)c2ccc(C(=O)NS(=O)(=O)N(C)C)cc21	4.58 to 500 nM	4.58 to 500 nM
COc1ccc2c(c1)C=C(c1ncccc1C(=O)N(C)C)Cn1c-2c(C2CCCCC2)c2ccc(C(=O)NS(=O)(=O)N(C)C)cc21	4.58 to 500 nM	4.58 to 500 nM
COc1ccc2c(c1)C=C(c1ncccc1C(=O)N1CCCC1)Cn1c-2c(C2CCCCC2)c2ccc(C(=O)NS(=O)(=O)N(C)C)cc21	4.58 to 500 nM	4.58 to 500 nM
COc1ccc2c(c1)C=C(c1ncccc1C(=O)N1CCC(O)CC1)Cn1c-2c(C2CCCCC2)c2ccc(C(=O)NS(=O)(=O)N(C)C)cc21	4.58 to 500 nM	4.58 to 500 nM
COc1ccc2c(c1)C=C(c1ncccc1C(=O)N1CCCCC1)Cn1c-2c(C2CCCCC2)c2ccc(C(=O)NS(=O)(=O)N(C)C)cc21	4.58 to 500 nM	4.58 to 500 nM
COc1ccc2c(c1)C=C(c1ccccc1)Cn1c-2c(C2CCCCC2)c2ccc(C(=O)NS(=O)(=O)N(C)C)cc21	> 500 nM	4.58 to 500 nM
COc1ccc2c(c1)CC(c1ncccc1C(=O)N1CCOCC1)Cn1c-2c(C2CCCCC2)c2ccc(C(=O)NS(=O)(=O)N(C)C)cc21 (stereo not drawn)	4.58 to 500 nM	4.58 to 500 nM
COc1ccc2c(c1)CC(c1cccc(N3CCOCC3)n1)Cn1c-2c(C2CCCCC2)c2ccc(C(=O)NS(=O)(=O)N(C)C)cc21 (stereo not drawn)	4.58 to 500 nM	4.58 to 500 nM
COc1ccc2c(c1)CC(c1cc(C(=O)N3CCOCC3)ccn1)Cn1c-2c(C2CCCCC2)c2ccc(C(=O)NS(=O)(=O)N(C)C)cc21 (stereo not drawn)	4.58 to 500 nM	4.58 to 500 nM
COc1ccc2c(c1)C1CC1(c1ncccc1C(=O)N1CCN(C)CC1)Cn1c-2c(C2CCCCC2)c2ccc(C(=O)NS(=O)(=O)N(C)C)cc21 (stereo not drawn)	4.58 to 500 nM	4.58 to 500 nM
COc1ccc2c(c1)C=C(c1ccccc1OC(F)F)Cn1c-2c(C2CCCCC2)c2ccc(C(=O)NS(=O)(=O)C(C)C)cc21	> 500 nM	4.58 to 500 nM
COc1ccc2c(c1)C=C(c1ccccc1)Cn1c-2c(C2CCCCC2)c2ccc(C(=O)NS(=O)(=O)C(C)C)cc21	> 500 nM	4.58 to 500 nM
COc1ccc2c(c1)C=C(c1ccccc1-c1noc(C)n1)Cn1c-2c(C2CCCCC2)c2ccc(C(=O)NS(=O)(=O)C(C)C)cc21	4.58 to 500 nM	4.58 to 500 nM
COc1ccc2c(c1)C=C(c1ccccc1S(=O)(=O)N(C)C)Cn1c-2c(C2CCCCC2)c2ccc(C(=O)NS(=O)(=O)C(C)C)cc21	> 500 nM	4.58 to 500 nM
COc1ccc2c(c1)C=C(c1cc(C(F)(F)F)ccc1N1CCOCC1)Cn1c-2c(C2CCCCC2)c2ccc(C(=O)NS(=O)(=O)C(C)C)cc21	> 500 nM	> 500 nM
COc1ccc2c(c1)C=C(c1ccccc1NC(=O)C1CC1)Cn1c-2c(C2CCCCC2)c2ccc(C(=O)NS(=O)(=O)C(C)C)cc21	4.58 to 500 nM	4.58 to 500 nM
COc1ccc2c(c1)C=C(c1ccccc1OCCN1CCOCC1)Cn1c-2c(C2CCCCC2)c2ccc(C(=O)NS(=O)(=O)C(C)C)cc21	4.58 to 500 nM	4.58 to 500 nM
COc1ccc2c(c1)C=C(c1ccccc1OCCN(C)C)Cn1c-2c(C2CCCCC2)c2ccc(C(=O)NS(=O)(=O)C(C)C)cc21	4.58 to 500 nM	4.58 to 500 nM
COc1ccc2c(c1)C=C(c1ccccc1CS(C)(=O)=O)Cn1c-2c(C2CCCCC2)c2ccc(C(=O)NS(=O)(=O)C(C)C)cc21	4.58 to 500 nM	4.58 to 500 nM
COc1ccc2c(c1)C=C(c1cccc(OCCN(C)C)c1)Cn1c-2c(C2CCCCC2)c2ccc(C(=O)O)cc21	> 500 nM	4.58 to 500 nM
COc1ccc2c(c1)C=C(c1cccc(OCCN3CCOCC3)c1)Cn1c-2c(C2CCCCC2)c2ccc(C(=O)O)cc21	> 500 nM	4.58 to 500 nM
